Laboratory results reported in patent US20260274892A1, “MACROCYCLIC BROAD SPECTRUM ANTIBIOTICS” (RQx Pharmaceuticals, Inc., priority 2017, published 2026).

Legend:
[1] = test system: Methicillin Resistant Staphylococcus aureus strain USA 200; assay: Minimum inhibitory concentration (MIC), CLSI broth micro-dilution, S. aureus; type: cell-based; settings: Staphylococcus aureus, MRSA / USA200; Table 6; MRSA USA 200; cation adjusted Mueller Hinton Broth + 0.002% Tween-80; 35° C., 22 hours
Outline: (§1)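 Colonies grown 20 h at 35° C on Trypticase Soy agar (MRSA) or Luria agar (E. coli) were suspended in cation-adjusted Mueller Hinton broth with 0.002% Tween-80. Suspensions were added at OD600 0.0005 to 10-point twofold compound dilutions, then incubated 22 h at 35° C.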

[2] = test system: Escherichia coli ATCC 25922; assay: Minimum inhibitory concentration (MIC), CLSI broth micro-dilution, E. coli; type: cell-based; settings: Escherichia coli, ATCC25922, 22 h, Table 6, cation adjusted Mueller Hinton Broth + 0.002% Tween-80, 35° C.
Outline: as §1

Row | Compound | MIC [1] | MIC [2]
1 | Cc1nc(-c2ccc(C(C)(C)C)cc2)nc(Cl)c1C(=O)N[C@@H](CCN)C(=O)N(C)[C@@H]1C(=O)N[C@@H](C)C(=O)N[C@H](C(=O)NCC#N)Cc2ccc(OCCN)c(c2)-c2cc1ccc2OCCN (racemic) [Compound 421, rac-(8S,11S,14S)-3,18-bis(2-aminoethoxy)-N-(cyanomethyl)-11-methyl-14-[methyl-[rac-(2S)-4-amino-2-[[2-(4-tert-butylphenyl)-4-chloro-6-methyl-pyrimidine-5-carbonyl]amino]butanoyl]amino]-10,13-dioxo-9,12-diazatricyclo[13.3.1.12,6]icosa-1(18),2(20),3,5,15(19),16-hexaene-8-carboxamide] | 0.031 µM | 0.19 µM
2 | COc1nc(-c2ccc(C(C)(C)C)cc2)nc(C)c1C(=O)N[C@@H](CCN)C(=O)N(C)[C@@H]1C(=O)N[C@@H](C)C(=O)N[C@H](C(=O)NCC#N)Cc2ccc(OCCN)c(c2)-c2cc1ccc2OCCN (racemic) [Compound 422, rac-(8S,11S,14S)-3,18-bis(2-aminoethoxy)-N-(cyanomethyl)-11-methyl-14-[methyl-[rac-(2S)-4-amino-2-[[2-(4-tert-butylphenyl)-4-methoxy-6-methyl-pyrimidine-5-carbonyl]amino]butanoyl]amino]-10,13-dioxo-9,12-diazatricyclo[13.3.1.12,6]icosa-1(18),2(20),3,5,15(19),16-hexaene-8-carboxamide] | 0.031 µM | 0.38 µM
3 | Cc1nc(-c2ccc(C(C)(C)C)cc2)nc(O)c1C(=O)N[C@@H](CCN)C(=O)N(C)[C@@H]1C(=O)N[C@@H](C)C(=O)N[C@H](C(=O)NCC#N)Cc2ccc(OCCN)c(c2)-c2cc1ccc2OCCN (racemic) [Compound 423, rac-(8S,11S,14S)-3,18-bis(2-aminoethoxy)-N-(cyanomethyl)-11-methyl-14-[methyl-[rac-(2S)-4-amino-2-[[2-(4-tert-butylphenyl)-4-hydroxy-6-methyl-pyrimidine-5-carbonyl]amino]butanoyl]amino]-10,13-dioxo-9,12-diazatricyclo[13.3.1.12,6]icosa-1(18),2(20),3,5,15(19),16-hexaene-8-carboxamide] | 0.13 µM | 2 µM
4 | Cc1nc(-c2ccc(C(C)(C)C)cc2)nc(N(C)C)c1C(=O)N[C@@H](CCN)C(=O)N(C)[C@@H]1C(=O)N[C@@H](C)C(=O)N[C@H](C(=O)NCC#N)Cc2ccc(OCCN)c(c2)-c2cc1ccc2OCCN (racemic) [Compound 424, rac-(8S,11S,14S)-3,18-bis(2-aminoethoxy)-N-(cyanomethyl)-11-methyl-14-[methyl-[rac-(2S)-4-amino-2-[[2-(4-tert-butylphenyl)-4-(dimethylamino)-6-methyl-pyrimidine-5-carbonyl]amino]butanoyl]amino]-10,13-dioxo-9,12-diazatricyclo[13.3.1.12,6]icosa-1(18),2(20),3,5,15(19),16-hexaene-8-carboxamide] | 0.023 µM | 0.19 µM
5 | CNc1nc(-c2ccc(C(C)(C)C)cc2)nc(C)c1C(=O)N[C@@H](CCN)C(=O)N(C)[C@@H]1C(=O)N[C@@H](C)C(=O)N[C@H](C(=O)NCC#N)Cc2ccc(OCCN)c(c2)-c2cc1ccc2OCCN (racemic) [Compound 425, rac-(8S,11S,14S)-3,18-bis(2-aminoethoxy)-N-(cyanomethyl)-11-methyl-14-[methyl-[rac-(2S)-4-amino-2-[[2-(4-tert-butylphenyl)-4-methyl-6-(methylamino)pyrimidine-5-carbonyl]amino]butanoyl]amino]-10,13-dioxo-9,12-diazatricyclo[13.3.1.12,6]icosa-1(18),2(20),3,5,15(19),16-hexaene-8-carboxamide] | 0.016 µM | 0.19 µM
6 | Cc1nc(-c2ccc(C(C)(C)C)cc2)nc(N)c1C(=O)N[C@@H](CCN)C(=O)N(C)[C@@H]1C(=O)N[C@@H](C)C(=O)N[C@H](C(=O)NCC#N)Cc2ccc(OCCN)c(c2)-c2cc1ccc2OCCN (racemic) [Compound 426, rac-(8S,11S,14S)-3,18-bis(2-aminoethoxy)-N-(cyanomethyl)-11-methyl-14-[methyl-[rac-(2S)-4-amino-2-[[4-amino-2-(4-tert-butylphenyl)-6-methyl-pyrimidine-5-carbonyl]amino]butanoyl]amino]-10,13-dioxo-9,12-diazatricyclo[13.3.1.12,6]icosa-1(18),2(20),3,5,15(19),16-hexaene-8-carboxamide] | 0.023 µM | 0.12 µM
7 | C[C@@H]1NC(=O)[C@@H](N(C)C(=O)[C@H](CCN)NC(=O)c2c(N)nc(-c3ccc(C(C)(C)C)cc3)nc2N)c2ccc(OCCN)c(c2)-c2cc(ccc2OCCN)C[C@@H](C(=O)NCC#N)NC1=O (racemic) [Compound 429, rac-(8S,11S,14S)-3,18-bis(2-aminoethoxy)-N-(cyanomethyl)-11-methyl-14-[methyl-[rac-(2S)-4-amino-2-[[4,6-diamino-2-(4-tert-butylphenyl)pyrimidine-5-carbonyl]amino]butanoyl]amino]-10,13-dioxo-9,12-diazatricyclo[13.3.1.12,6]icosa-1(18),2(20),3,5,15(19),16-hexaene-8-carboxamide] | 0.023 µM | 1 µM
8 | Cc1nc(-c2ccc(CC(C)C)cc2)ccc1C(=O)N[C@@H](CCN)C(=O)N(C)[C@@H]1C(=O)N[C@@H](C)C(=O)N[C@H](C(=O)NCC#N)Cc2ccc(O)c(c2)-c2cc1ccc2O (racemic) [Compound 430, rac-(8S,11S,14S)-N-(cyanomethyl)-3,18-dihydroxy-11-methyl-14-[methyl-[rac-(2S)-4-amino-2-[[6-(4-isobutylphenyl)-2-methyl-pyridine-3-carbonyl]amino]butanoyl]amino]-10,13-dioxo-9,12-diazatricyclo[13.3.1.12,6]icosa-1(18),2(20),3,5,15(19),16-hexaene-8-carboxamide] | 0.15 µM | 4.7 µM
9 | Cc1nc(-c2ccc(C(C)(C)C)cc2)ncc1C(=O)N[C@@H](CCN)C(=O)N(C)[C@@H]1C(=O)N[C@@H](C)C(=O)N[C@H](C(=O)NCC#N)Cc2ccc(O)c(c2)-c2cc1ccc2O (racemic) [Compound 431, rac-(8S,11S,14S)-N-(cyanomethyl)-3,18-dihydroxy-11-methyl-14-[methyl-[rac-(2S)-4-amino-2-[[2-(4-tert-butylphenyl)-4-methyl-pyrimidine-5-carbonyl]amino]butanoyl]amino]-10,13-dioxo-9,12-diazatricyclo[13.3.1.12,6]icosa-1(18),2(20),3,5,15(19),16-hexaene-8-carboxamide] | 0.18 µM | 3.9 µM
10 | CCCCCc1ccc(-c2ncc(C(=O)N[C@@H](CCN)C(=O)N(C)[C@@H]3C(=O)N[C@@H](C)C(=O)N[C@H](C(=O)NCC#N)Cc4ccc(O)c(c4)-c4cc3ccc4O)c(C)n2)cc1 (racemic) [Compound 432, rac-(8S,11S,14S)-N-(cyanomethyl)-3,18-dihydroxy-11-methyl-14-[methyl-[rac-(2S)-4-amino-2-[[4-methyl-2-(4-pentylphenyl)pyrimidine-5-carbonyl]amino]butanoyl]amino]-10,13-dioxo-9,12-diazatricyclo[13.3.1.12,6]icosa-1(18),2(20),3,5,15(19),16-hexaene-8-carboxamide] | 0.045 µM | 1.4 µM
11 | Cc1nc(-c2ccc(C(C)(C)C)cc2)nc(C)c1C(=O)N[C@@H](CCN)C(=O)N(C)[C@@H]1C(=O)N[C@@H](C)C(=O)N[C@H](C(=O)NCC#N)Cc2ccc(OCCCN)c(c2)-c2cc1ccc2OCCCN (racemic) [Compound 434, rac-(8S,11S,14S)-3,18-bis(3-aminopropoxy)-N-(cyanomethyl)-11-methyl-14-[methyl-[rac-(2S)-4-amino-2-[[2-(4-tert-butylphenyl)-4,6-dimethyl-pyrimidine-5-carbonyl]amino]butanoyl]amino]-10,13-dioxo-9,12-diazatricyclo[13.3.1.12,6]icosa-1(18),2(20),3,5,15(19),16-hexaene-8-carboxamide] | 0.023 µM | 0.21 µM
12 | CCCCCOc1ccc(-c2nc(C)c(C(=O)N[C@@H](CCN)C(=O)N(C)[C@@H]3C(=O)N[C@@H](C)C(=O)N[C@H](C(=O)NCC#N)Cc4ccc(OCCCN)c(c4)-c4cc3ccc4OCCCN)c(C)n2)cc1 (racemic) [Compound 435, rac-(8S,11S,14S)-3,18-bis(3-aminopropoxy)-N-(cyanomethyl)-11-methyl-14-[methyl-[rac-(2S)-4-amino-2-[[4,6-dimethyl-2-(4-pentoxyphenyl)pyrimidine-5-carbonyl]amino]butanoyl]amino]-10,13-dioxo-9,12-diazatricyclo[13.3.1.12,6]icosa-1(18),2(20),3,5,15(19),16-hexaene-8-carboxamide] | 0.012 µM | 0.094 µM
13 | Cc1nc(-c2ccc(C(C)(C)C)cc2)nc(C)c1C(=O)N[C@@H](CCN)C(=O)N(C)[C@@H]1C(=O)N[C@@H](C)C(=O)N[C@H](C(=O)NCC#N)Cc2ccc(OCCCCN)c(c2)-c2cc1ccc2OCCCCN (racemic) [Compound 437, rac-(8S,11S,14S)-3,18-bis(4-aminobutoxy)-N-(cyanomethyl)-11-methyl-14-[methyl-[rac-(2S)-4-amino-2-[[2-(4-tert-butylphenyl)-4,6-dimethyl-pyrimidine-5-carbonyl]amino]butanoyl]amino]-10,13-dioxo-9,12-diazatricyclo[13.3.1.12,6]icosa-1(18),2(20),3,5,15(19),16-hexaene-8-carboxamide] | 0.031 µM | 0.38 µM
